Laboratory results: patent US20060211698A1, “Bicyclic heteroaryl derivatives for treating viruses” (Genelabs, Inc., priority 2005, published 2006)

Target: T1, HCV-NS5b (Hepatitis C virus genotype 1b, UniProt Q9WMX2)
T1 construct: The cloned fragment was missing the C terminus 21 amino acid residues; (His)6 (C); made in house; host or cells: XL-1 cells (E. coli)
Experiment: HCV-NS5b Enzyme Assay
Type: biochemical
Settings: 1 μM test compound; incorporation of [3H]-UTP, 37° C., 2 hours
Outline: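 The NS5B construct lacks its C-terminal 21 residues, carries a C-terminal His6 tag and was expressed in E. coli. [^3H]-UTP incorporation on a biotinylated HCV heteropolymeric template (10 ng/μL) with 10 μM each NTP, pH 7.5, 5 mM MgCl2 and 5% DMSO ran 2 h at 37° C and was read by SPA scintillation. IC50s came from 10-point 2-fold series starting at 50 or 2 μM.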

SMILES | inhibition at 1 µM [%] | % inhibition @ 1 μM [%]
O=C(O)c1ccc2c(C3CCCCC3)c(-c3ccc4ncc(-c5ccccc5)nc4c3)n(CC(=O)N3CCOCC3)c2c1 [Compound 329, 3-Cyclohexyl-1-(2-morpholin-4-yl-2-oxo-ethyl)-2-(3-phenyl-quinoxalin-6-yl)-1H-indole-6-carboxylic acid] | 99.8 | –
Cc1nc(C)c(-c2ccc3cc(-c4c(C5CCCCC5)c5ccc(-c6nnn[nH]6)cc5n4CC(=O)N4CCOCC4)ccc3n2)s1 [Compound 244, 2-[3-Cyclohexyl-2-[2-(2,4-dimethyl-thiazol-5-yl)-quinolin-6-yl]-6-(1H-tetrazol-5-yl)-indol-1-yl]-1-morpholin-4-yl-ethanone] | 97.2 | –
Cc1ccc(-c2ccc(-c3c(C4CCCCC4)c4ccc(C(=O)O)cc4n3CC(=O)N3CCOCC3)cc2)cc1 [Compound 300, 3-Cyclohexyl-2-(4′-methyl-biphenyl-4-yl)-1-(2-morpholin-4-yl-2-oxo-ethyl)-1H-indole-6-carboxylic acid] | 98.2 | –
O=C(O)c1ccc2c(C3CCCCC3)c(-c3ccc4nc(-c5cnccn5)ccc4c3)n(CC(=O)N3CCOCC3)c2c1 [Compound 218, 1-[N-morpholinocarbonylmethyl]-2-[2-(pyrazin-2-yl)-quinolin-6-yl]-3-cyclohexyl-1H-indole-6-carboxylic acid] | – | 96.2
Cc1nc(C)c(-c2ccc3cc(-c4c(C5CCCCC5)c5ccc(C(=O)O)cc5n4CC(=O)NCCO)ccc3n2)s1 [Compound 215, 1-[(2-hydroxyethylcarbamoyl)-methyl]-2-[2-(2,4-dimethyl-thiazol-5-yl)-quinolin-6-yl]-3-cyclohexyl-1H-indole-6-carboxylic acid] | 94.3 | –
O=C(O)c1ccc2c(C3CCCCC3)c(-c3ccc4nc(-c5cccc(OC(F)(F)F)c5)ccc4c3)n(CC(=O)N3CCOCC3)c2c1 [Compound 246, 3-Cyclohexyl-1-(2-morpholin-4-yl-2-oxo-ethyl)-2-[2-(3-trifluoromethoxy-phenyl)-quinolin-6-yl]-1H-indole-6-carboxylic acid] | 96.9 | –
Cc1cccc(-c2ccc3cc(-c4c(C5CCCCC5)c5ccc(C(=O)O)cc5n4CC(=O)N4CCOCC4)ccc3c2)c1 [Compound 321, 3-Cyclohexyl-1-(2-morpholin-4-yl-2-oxo-ethyl)-2-(6-m-tolyl-naphthalen-2-yl)-1H-indole-6-carboxylic acid] | 98.2 | –
COc1ccccc1-c1ccc2cc(-c3c(C4CCCCC4)c4ccc(C(=O)O)cc4n3CC(=O)N3CCOCC3)ccc2n1 [Compound 233, 3-Cyclohexyl-2-[2-(2-methoxy-phenyl)-quinolin-6-yl]-1-(2-morpholin-4-yl-2-oxo-ethyl)-1H-indole-6-carboxylic acid] | 95.7 | –
Cc1cc(-c2ccc3cc(-c4c(C5CCCCC5)c5ccc(C(=O)O)cc5n4CC(=O)N4CCOCC4)ccc3n2)c(C)o1 [Compound 230, 3-Cyclohexyl-2-[2-(2,5-dimethyl-furan-3-yl)-quinolin-6-yl]-1-(2-morpholin-4-yl-2-oxo-ethyl)-1H-indole-6-carboxylic acid] | 92.2 | –
Cc1noc(C)c1-c1ccc(-c2c(C3CCCCC3)c3ccc(C(=O)O)cc3n2CC(=O)N2CCOCC2)cc1 [Compound 317, 3-Cyclohexyl-2-[4-(3,5-dimethyl-isoxazol-4-yl)-phenyl]-1-(2-morpholin-4-yl-2-oxo-ethyl)-1H-indole-6-carboxylic acid] | 96.7 | –
Cc1nc(C)c(-c2ccc3cc(-c4c(C5CCCCC5)c5ccc(C(=O)O)cc5n4CC(=O)N4CCOCC4)ccc3n2)s1 [Compound 210, 1-[N-morpholinocarbonylmethyl]-2-[2-(2,4-dimethylthiazol-5-yl)-quinolin-6-yl]-3-cyclohexyl-1H-indole-6-carboxylic acid] | 97.3 | –
O=C(O)c1ccc2c(C3CCCCC3)c(-c3ccc4nc(-c5ccccc5)ccc4c3)n(CC(=O)N3CCOCC3)c2c1 [Compound 220, 1-[N-morpholinocarbonylmethyl]-2-[2-phenylquinolin-6-yl]-3-cyclohexyl-1H-indole-6-carboxylic acid] | – | 96.4
O=C(O)c1ccc2c(C3CCCCC3)c(-c3ccc4nc(-c5ccsc5)ccc4c3)n(CC(=O)N3CCOCC3)c2c1 [Compound 228, 1-[N-morpholinocarbonylmethyl]-2-[2-thien-3-ylquinolin-6-yl]-3-cyclohexyl-1H-indole-6-carboxylic acid] | – | 96.2
COc1ccc(-c2ccc(Cl)cc2)c(-c2ccc3cc(-c4c(C5CCCCC5)c5ccc(C(=O)O)cc5n4CC(=O)O)ccc3n2)c1 [Compound 202, 1-carboxymethyl-2-[2-(4′-chloro-4-methoxy-biphenyl-2-yl)-quinolin-6-yl]-3-cyclohexyl-1H-indole-6-carboxylic acid] | 98.3 | –
O=C(O)c1ccc2c(C3CCCCC3)c(-c3ccc4nc(-c5ccccc5C(F)(F)F)ccc4c3)n(CC(=O)N3CCOCC3)c2c1 [Compound 267, 3-Cyclohexyl-1-(2-morpholin-4-yl-2-oxo-ethyl)-2-[2-(2-trifluoromethyl-phenyl)-quinolin-6-yl]-1H-indole-6-carboxylic acid] | 94.6 | –
Nc1cccc(-c2ccc(-c3c(C4CCCCC4)c4ccc(C(=O)O)cc4n3CC(=O)N3CCOCC3)cc2)c1 [Compound 315, 2-(3′-Amino-biphenyl-4-yl)-3-cyclohexyl-1-(2-morpholin-4-yl-2-oxo-ethyl)-1H-indole-6-carboxylic acid] | 95.8 | –
COc1ccc(-c2ccc(-c3c(C4CCCCC4)c4ccc(C(=O)O)cc4n3CC(=O)N3CCOCC3)cc2)cc1 [Compound 301, 3-Cyclohexyl-2-(4′-methoxy-biphenyl-4-yl)-1-(2-morpholin-4-yl-2-oxo-ethyl)-1H-indole-6-carboxylic acid] | 97 | –
Cc1ccc(-c2ccc3cc(-c4c(C5CCCCC5)c5ccc(C(=O)O)cc5n4CC(=O)N4CCOCC4)ccc3n2)o1 [Compound 223] | – | 95.1
Cc1nc(C)c(-c2ccc3cc(-c4c(C5CCCCC5)c5ccc(C(=O)O)cc5n4CC(=O)O)ccc3n2)s1 [Compound 211, 1-[carboxymethyl]-2-[2-(2,4-dimethylthiazol-5-yl)-quinolin-6-yl]-3-cyclohexyl-1H-indole-6-carboxylic acid] | 91 | –
